From patent US10501425B2, “Microbiocidal oxadiazole derivatives” (SYNGENTA PARTICIPATIONS AG, priority 2015, dated 2019)

What was measured:
[1] = test system: Glomerella lacenarium (Colletotrichum lagenarium); assay: Glomerella lagenarium liquid culture / cucumber / preventative (anthracnose); assay type: cell-based; details: Colletotrichum orbiculare; 20 ppm in the applied formulation; liquid culture (PDB), growth inhibition measured photometrically 3 to 4 days after application; compared to untreated; read-out: disease control
Protocol: Mycelia fragments or conidia suspensions of a fungus prepared either freshly from liquid cultures of the fungus or from cryogenic storage, are directly mixed into nutrient broth. DMSO solutions of the test compound (max. 10 mg/ml) are diluted with 0.025% Tween20 by a factor of 50 and 10 μl of this solution is pipetted into a microtiter plate (96-well format). The nutrient broth containing the fungal spores/mycelia fragments is then added to give an end concentration of the tested compound. The test plates are incubated in the dark at 24° C. and 96% relative humidity. The inhibition of fungal growth is determined photometrically after 2 to 7 days, depending on the pathosystem, and percent antifungal activity relative to the untreated check is calculated.
Conidia of the fungus from cryogenic storage are directly mixed into nutrient broth (PDB—potato dextrose broth). After placing a (DMSO) solution of test compound into a microtiter plate (96-well format), the nutrient broth containing the fungal spores is added.
The following compounds at 20 ppm in the applied formulation give at least 80% disease control in this test when compared to untreated control under the same conditions, which show extensive disease development.

Phakopsora pachyrhizi = Phakopsora pachyrhizi / soybean / leaf disc preventative (Asian soybean rust); assay type: in vivo; details: foliar, 200 ppm in the applied formulation, soybean leaf disks, compared to untreated, read-out: disease control
Protocol: (§1) Leaf disks or leaf segments of various plant species are cut from plants grown in a greenhouse. The cut leaf disks or segments are placed in multiwell plates (24-well format) onto water agar. The leaf disks are sprayed with a test solution before (preventative) or after (curative) inoculation. Compounds to be tested are prepared as DMSO solutions (max. 10 mg/ml) which are diluted to the appropriate concentration with 0.025% Tween20 just before spraying. The inoculated leaf disks or segments are incubated under defined conditions (temperature, relative humidity, light, etc.) according to the respective test system. A single evaluation of disease level is carried out 3 to 14 days after inoculation, depending on the pathosystem. Percent disease control relative to the untreated check leaf disks or segments is then calculated.
Soybean leaf disks are placed on water agar in multiwell plates (24-well format) and sprayed with the formulated test compound diluted in water. One day after application leaf discs are inoculated by spraying a spore suspension on the lower leaf surface. After an incubation period in a climate cabinet of 24-36 hours in darkness at 20° C. and 75% rh leaf disc are kept at 20° C. with 12 h light/day and 75% rh. The activity of a compound is assessed as percent disease control compared to untreated when an appropriate level of disease damage appears in untreated check leaf disks (12 to 14 days after application).
(§2) The following compounds at 200 ppm in the applied formulation give at least 80% disease control in this test when compared to untreated control leaf disks under the same conditions, which show extensive disease development.

[2] = test system: Puccinia recondita f. Sp. Tritici; assay: Puccinia recondita f. sp. tritici / wheat / leaf disc curative (brown rust); assay type: in vivo; details: foliar, 24 h, 200 ppm in the applied formulation, wheat leaf segments cv. Kanzler, curative (applied 1 day after inoculation), compared to untreated, read-out: disease control
Protocol: as §1
Wheat leaf segments cv. Kanzler are placed on agar in multiwell plates (24-well format). The leaf segments are then inoculated with a spore suspension of the fungus. Plates were stored in darkness at 19° C. and 75% relative humidity. The formulated test compound diluted in water was applied 1 day after inoculation. The leaf segments were incubated at 19° C. and 75% relative humidity under a light regime of 12 hours light/12 hours darkness in a climate cabinet and the activity of a compound was assessed as percent disease control compared to untreated when an appropriate level of disease damage appears in untreated check leaf segments (6 to 8 days after application).
as §2

[3] = test system: Puccinia recondita f. Sp. Tritici; assay: Puccinia recondita f. sp. tritici / wheat / leaf disc preventative (brown rust); assay type: in vivo; details: foliar, 200 ppm in the applied formulation, wheat leaf segments cv. Kanzler, preventative (inoculated 1 day after application), compared to untreated, read-out: disease control
Protocol: as §1, with “calculated. Wheat leaf segments cv. Kanzler were placed on agar in multiwell plates (24-well format) and sprayed with the formulated test compound diluted in water. The leaf disks were inoculated with a spore suspension of the fungus 1 day after application. The inoculated leaf segments were incubated at 19° C. and 75% relative humidity (rh) under a light regime of 12 hours light/12 hours darkness in a climate cabinet and the activity of a compound was assessed as percent disease control compared to untreated when an appropriate level of disease damage appears in untreated check leaf segments (7 to 9 days after application). The following compounds at 200 ppm in the applied formulation give at least 80% disease control in this test when compared to untreated control leaf disks under the same conditions, which show extensive disease development.” for “calculated.”

CC(=O)CC(C)C(=O)NCc1ccc(-c2noc(C(F)(F)F)n2)cc1 (stereo not drawn) [Compound 1.9, 2-methyl-4-oxo-N-[[4-[5-(trifluoromethyl)-1,2,4-oxadiazol-3-yl]phenyl]methyl]pentanamide]
≥ 80%: inhibition of growth at 20 ppm [1] | pest or weed control at 200 ppm (Phakopsora pachyrhizi) | pest or weed control at 200 ppm [2] | pest or weed control at 200 ppm [3]

CCC(C)C(=O)NCc1ccc(-c2noc(C(F)(F)F)n2)cc1 (stereo not drawn) [Compound 1.17, 2-methyl-N-[[4-[5-(trifluoromethyl)-1,2,4-oxadiazol-3-yl]phenyl]methyl]butanamide]
≥ 80%: inhibition of growth at 20 ppm [1] | pest or weed control at 200 ppm (Phakopsora pachyrhizi) | pest or weed control at 200 ppm [2] | pest or weed control at 200 ppm [3]

COCCCC(=O)NCc1ccc(-c2noc(C(F)(F)F)n2)cc1 [Compound 1.21, 4-methoxy-N-[[4-[5-(trifluoromethyl)-1,2,4-oxadiazol-3-yl]phenyl]methyl]butanamide]
≥ 80%: inhibition of growth at 20 ppm [1] | pest or weed control at 200 ppm (Phakopsora pachyrhizi) | pest or weed control at 200 ppm [2] | pest or weed control at 200 ppm [3]

O=C(CC(F)(F)F)NCc1ccc(-c2noc(C(F)(F)F)n2)cc1F [Compound 1.46, 3,3,3-trifluoro-N-[[2-fluoro-4-[5-(trifluoromethyl)-1,2,4-oxadiazol-3-yl]phenyl]methyl]propanamide]
≥ 80%: inhibition of growth at 20 ppm [1] | pest or weed control at 200 ppm (Phakopsora pachyrhizi) | pest or weed control at 200 ppm [2] | pest or weed control at 200 ppm [3]

CC(C)COC(=O)NCc1ccc(-c2noc(C(F)(F)F)n2)cc1 [Compound 2.8, isobutyl N-[[4-[5-(trifluoromethyl)-1,2,4-oxadiazol-3-yl]phenyl]methyl]carbamate]
≥ 80%: inhibition of growth at 20 ppm [1] | pest or weed control at 200 ppm (Phakopsora pachyrhizi) | pest or weed control at 200 ppm [2] | pest or weed control at 200 ppm [3]

CC(=O)NCc1ccc(-c2noc(C(F)(F)F)n2)c(F)c1F [Compound 1.65, N-[[2,3-difluoro-4-[5-(trifluoromethyl)-1,2,4-oxadiazol-3-yl]phenyl]methyl]acetamide]
≥ 80%: inhibition of growth at 20 ppm [1] | pest or weed control at 200 ppm (Phakopsora pachyrhizi) | pest or weed control at 200 ppm [2] | pest or weed control at 200 ppm [3]

C=CCOC(=O)NCc1ccc(-c2noc(C(F)(F)F)n2)cc1 [Compound 2.10, allyl N-[[4-[5-(trifluoromethyl)-1,2,4-oxadiazol-3-yl]phenyl]methyl]carbamate]
≥ 80%: inhibition of growth at 20 ppm [1] | pest or weed control at 200 ppm (Phakopsora pachyrhizi) | pest or weed control at 200 ppm [2] | pest or weed control at 200 ppm [3]

CCNC(=O)NCc1ccc(-c2noc(C(F)(F)F)n2)cc1 [Compound 3.10, 1-ethyl-3-[[4-[5-(trifluoromethyl)-1,2,4-oxadiazol-3-yl]phenyl]methyl]urea]
≥ 80%: inhibition of growth at 20 ppm [1] | pest or weed control at 200 ppm (Phakopsora pachyrhizi) | pest or weed control at 200 ppm [2] | pest or weed control at 200 ppm [3]

CC#CCOC(=O)NCc1ccc(-c2noc(C(F)(F)F)n2)cc1 [Compound 2.7, but-2-ynyl N-[[4-[5-(trifluoromethyl)-1,2,4-oxadiazol-3-yl]phenyl]methyl]carbamate]
≥ 80%: pest or weed control at 200 ppm (Phakopsora pachyrhizi) | pest or weed control at 200 ppm [3]

CC(C)C(=O)NCc1ccc(-c2noc(C(F)(F)F)n2)cc1F [Compound 1.35, N-[[2-fluoro-4-[5-(trifluoromethyl)-1,2,4-oxadiazol-3-yl]phenyl]methyl]-2-methyl-propanamide]
≥ 80%: inhibition of growth at 20 ppm [1] | pest or weed control at 200 ppm (Phakopsora pachyrhizi) | pest or weed control at 200 ppm [2] | pest or weed control at 200 ppm [3]

O=C(CC(F)(F)F)NCc1ccc(-c2noc(C(F)(F)F)n2)c(F)c1F [Compound 1.63, N-[[2,3-difluoro-4-[5-(trifluoromethyl)-1,2,4-oxadiazol-3-yl]phenyl]methyl]-3,3,3-trifluoro-propanamide]
≥ 80%: inhibition of growth at 20 ppm [1] | pest or weed control at 200 ppm (Phakopsora pachyrhizi) | pest or weed control at 200 ppm [2] | pest or weed control at 200 ppm [3]

COCC(=O)NC(C)(C)c1ccc(-c2noc(C(F)(F)F)n2)cc1 [Compound 1.95, 2-methoxy-N-[1-methyl-1-[4-[5-(trifluoromethyl)-1,2,4-oxadiazol-3-yl]phenyl]ethyl]acetamide]
≥ 80%: inhibition of growth at 20 ppm [1] | pest or weed control at 200 ppm (Phakopsora pachyrhizi) | pest or weed control at 200 ppm [2] | pest or weed control at 200 ppm [3]

CCC(C)C(=O)NCCc1ccc(-c2noc(C(F)(F)F)n2)cc1 (stereo not drawn) [Compound 1.87, 2-methyl-N-[2-[4-[5-(trifluoromethyl)-1,2,4-oxadiazol-3-yl]phenyl]ethyl]butanamide]
≥ 80%: inhibition of growth at 20 ppm [1] | pest or weed control at 200 ppm (Phakopsora pachyrhizi) | pest or weed control at 200 ppm [2] | pest or weed control at 200 ppm [3]

CC=CCC(=O)NCc1ccc(-c2noc(C(F)(F)F)n2)cc1 [Compound 1.14, N-[[4-[5-(trifluoromethyl)-1,2,4-oxadiazol-3-yl]phenyl]methyl]pent-3-enamide]
≥ 80%: inhibition of growth at 20 ppm [1] | pest or weed control at 200 ppm (Phakopsora pachyrhizi) | pest or weed control at 200 ppm [2] | pest or weed control at 200 ppm [3]

CC(=O)NCC(=O)NCCc1ccc(-c2noc(C(F)(F)F)n2)cc1 [Compound 1.82, 2-acetamido-N-[2-[4-[5-(trifluoromethyl)-1,2,4-oxadiazol-3-yl]phenyl]ethyl]acetamide]
≥ 80%: pest or weed control at 200 ppm (Phakopsora pachyrhizi)

CCC(C)NC(=O)NCc1ccc(-c2noc(C(F)(F)F)n2)cc1 (stereo not drawn) [Compound 3.7, 1-sec-butyl-3-[[4-[5-(trifluoromethyl)-1,2,4-oxadiazol-3-yl]phenyl]methyl]urea]
≥ 80%: inhibition of growth at 20 ppm [1] | pest or weed control at 200 ppm (Phakopsora pachyrhizi) | pest or weed control at 200 ppm [3]

O=C(CC(F)(F)F)NCCc1ccc(-c2noc(C(F)(F)F)n2)cc1 [Compound 1.91, 3,3,3-trifluoro-N-[2-[4-[5-(trifluoromethyl)-1,2,4-oxadiazol-3-yl]phenyl]ethyl]propanamide]
≥ 80%: inhibition of growth at 20 ppm [1] | pest or weed control at 200 ppm (Phakopsora pachyrhizi) | pest or weed control at 200 ppm [3]

CCC(C)C(=O)NCc1ccc(-c2noc(C(F)(F)F)n2)c(F)c1F (stereo not drawn) [Compound 1.59, N-[[2,3-difluoro-4-[5-(trifluoromethyl)-1,2,4-oxadiazol-3-yl]phenyl]methyl]-2-methyl-butanamide]
≥ 80%: inhibition of growth at 20 ppm [1] | pest or weed control at 200 ppm (Phakopsora pachyrhizi) | pest or weed control at 200 ppm [3]

CC(CO)(CCl)C(=O)NCCc1ccc(-c2noc(C(F)(F)F)n2)cc1 (stereo not drawn) [Compound 1.88, 2-(chloromethyl)-3-hydroxy-2-methyl-N-[2-[4-[5-(trifluoromethyl)-1,2,4-oxadiazol-3-yl]phenyl]ethyl]propanamide]
≥ 80%: inhibition of growth at 20 ppm [1] | pest or weed control at 200 ppm (Phakopsora pachyrhizi)
